“Also recorded” adds a separate entry of the source.
Legend:
Format in all cases: cell-based
[1] = system: chicken CLR + RAMP3; test: MAPK/ERK pGL4-SRE-luciferase reporter assay, CLR + RAMP3 in CHO cells; details: 10^−12 M to 10^−6 M, 6 h, mean ± SEM, n = 3, read-out: EC50, MAPK/ERK signaling pathway
Description: (§1) Chinese hamster ovary (CHO) cells were cultured in Dulbecco’s modified Eagle’s medium (DMEM) supplemented with 10% (vol/vol) fetal bovine serum (HyClone, Logan, UT, USA), 100 U/mL penicillin G and 100 μg/mL streptomycin. The cells were maintained in a 90 mm culture dish (Nunc, Rochester, NY, USA) and incubated at 37 °C with 5% CO2. To investigate the signaling pathways associated with each receptor in CHO cells, three different reporter systems (pGL3-CRE-luciferase, pGL4-SRE-luciferase, and pGL3-NFAT-RE-luciferase) were utilized to monitor intracellular cAMP/PKA and MAPK/ERK signaling pathways and calcium mobilization of the activated receptors, respectively.
(§2) Prior to the transfection procedure, the cells were initially cultured in 6-well plates (Nunc, Rochester, NY, USA), maintaining a seeding density of approximately 300,000 cells per well. Upon achieving approximately 70% confluence, the cells underwent a co-transfection process. […] The fluorescence activity of the luciferase in each treatment group was measured using a multimode microplate reader (TriStar LB941, Berthold Technologies, Bad Wildbad, Germany). Finally, the fluorescence activity of each treatment group was expressed as a relative increase ratio compared to the control group.

[2] = system: chicken CTR; test: Calcium pGL3-NFAT-RE-luciferase reporter assay, CTR + pcDNA in CHO cells; details: 10^−12 M to 10^−6 M, 6 h, mean ± SEM, n = 3, read-out: EC50, calcium signaling pathway
Description: as §1, §2

[3] = system: chicken CTR + RAMP1; test: Calcium pGL3-NFAT-RE-luciferase reporter assay, CTR + RAMP1 in CHO cells; details: 10^−12 M to 10^−6 M, 6 h, mean ± SEM, n = 3, read-out: EC50, calcium signaling pathway
Description: as §1, §2

[4] = system: chicken CTR + RAMP2; test: Calcium pGL3-NFAT-RE-luciferase reporter assay, CTR + RAMP2 in CHO cells
Description: as §1
(§3) Prior to the transfection procedure, the cells were initially cultured in 6-well plates (Nunc, Rochester, NY, USA), maintaining a seeding density of approximately 300,000 cells per well. Upon achieving approximately 70% confluence, the cells underwent a co-transfection process. This procedure entailed the introduction of 700 ng of various luciferase reporter constructs (namely, pGL3-CRE-luciferase, pGL4-SRE-luciferase, or pGL3-NFAT-RE-luciferase) combined with 200 ng of a specific receptor plasmid (CTR or CLR) and 1000 ng of either RAMP1, RAMP2, RAMP3 expression plasmids, or alternatively, the empty pcDNA3.1 (+) vector. A volume of 5.7 μL of PEI MAX was used in 200 μL of buffer following the manufacturer’s protocol. After 24 h of incubation, the transfected CHO cells were subcultured in 96-well plates and passaged for an additional 24 h before peptide treatment. Then, the medium from the 96-well plates was removed, and the cells were treated with chicken CT/CGRP-containing medium (or untreated medium as a control) at concentrations ranging from 10^−12 M to 10^−6 M for 6 h. […] The fluorescence activity of the luciferase in each treatment group was measured using a multimode microplate reader (TriStar LB941, Berthold Technologies, Bad Wildbad, Germany). Finally, the fluorescence activity of each treatment group was expressed as a relative increase ratio compared to the control group.

[5] = system: chicken CTR + RAMP3; test: Calcium pGL3-NFAT-RE-luciferase reporter assay, CTR + RAMP3 in CHO cells; details: 10^−12 M to 10^−6 M, 6 h, mean ± SEM, n = 3, read-out: EC50, calcium signaling pathway
Description: as §1, §2

[6] = system: chicken CLR + RAMP1; test: Calcium pGL3-NFAT-RE-luciferase reporter assay, CLR + RAMP1 in CHO cells; details: 10^−12 M to 10^−6 M, 6 h, mean ± SEM, n = 3, read-out: EC50, calcium signaling pathway
Description: as §1, §2

[7] = system: chicken CLR + RAMP2; test: Calcium pGL3-NFAT-RE-luciferase reporter assay, CLR + RAMP2 in CHO cells
Description: as §1, §3

[8] = system: chicken CLR + RAMP3; test: Calcium pGL3-NFAT-RE-luciferase reporter assay, CLR + RAMP3 in CHO cells; details: 10^−12 M to 10^−6 M, 6 h, mean ± SEM, n = 3, read-out: EC50, calcium signaling pathway
Description: as §1, §2

[9] = system: chicken CTR; test: Western blot CREB phosphorylation, CTR in CHO cells; details: 10 nM, 10 min, n = 3
Description: (§4) To assess whether the activation of chicken CTR and CLR, along with the presence of RAMPs, can augment the phosphorylation levels of cAMP response element-binding protein (CREB), 200 ng of CTR or CLR expression plasmids were combined with 1000 ng of chicken RAMPs or an empty pcDNA3.1 (+) vector in a 100 μL buffer. The resulting mixture was then transfected into CHO cells in a 12-well plate (Nunc, Rochester, NY, USA) using 3.6 μL of PEI MAX transfection reagent. After a 24 h incubation period, the cells were exposed to chicken CT (10 nM) or CGRP (10 nM) for 10 min. Subsequently, the culture medium was removed, and the cells were lysed according to the manufacturer’s instructions. Western blot analysis was performed to quantify the levels of CREB and phosphorylated CREB (p-CREB). The optical densities were analyzed and normalized using the software, ImageJ 1.52a (National Institutes of Health, Bethesda, MD, USA). The relative expression of p-CREB/CREB was determined by calculating the ratio of the optical density to that of the control without peptide treatment (0 min).

[10] = system: chicken CTR + RAMPs; test: Western blot CREB phosphorylation, CTR + RAMPs in CHO cells; details: 10 nM, 10 min, n = 3
Description: as §4

[11] = system: chicken CLR; test: Western blot CREB phosphorylation, CLR in CHO cells; details: 10 nM, 10 min, n = 3
Description: as §4

[12] = system: chicken CLR + RAMPs; test: Western blot CREB phosphorylation, CLR + RAMPs in CHO cells; details: 10 nM, 10 min, n = 3
Description: as §4

[13] = system: chicken CTR in the absence or presence of RAMPs; test: cAMP/PKA pGL3-CRE-luciferase reporter assay, CTR without and with RAMPs compared; details: CHO cells, pGL3-CRE-luciferase
Description: as §1, §3

[14] = system: chicken CLR in the absence or presence of RAMPs; test: cAMP/PKA pGL3-CRE-luciferase reporter assay, CLR without and with RAMPs compared
Description: as §1
Prior to the transfection procedure, the cells were initially cultured in 6-well plates (Nunc, Rochester, NY, USA), maintaining a seeding density of approximately 300,000 cells per well. Upon achieving approximately 70% confluence, the cells underwent a co-transfection process. This procedure entailed the introduction of 700 ng of various luciferase reporter constructs (namely, pGL3-CRE-luciferase, pGL4-SRE-luciferase, or pGL3-NFAT-RE-luciferase) combined with 200 ng of a specific receptor plasmid (CTR or CLR) and 1000 ng of either RAMP1, RAMP2, RAMP3 expression plasmids, or alternatively, the empty pcDNA3.1 (+) vector. A volume of 5.7 μL of PEI MAX was used in 200 μL of buffer following the manufacturer’s protocol. After 24 h of incubation, the transfected CHO cells were subcultured in 96-well plates and passaged for an additional 24 h before peptide treatment. Then, the medium from the 96-well plates was removed, and the cells were treated with chicken CT/CGRP-containing medium (or untreated medium as a control) at concentrations ranging from 10^−12 M to 10^−6 M for 6 h. Subsequently, the cells were harvested for luciferase assays by lysing them in 1 × passive lysis buffer. To measure the luciferase activity of the cell lysate, 40 μL of luciferase assay reagent (Promega, Madison, WI, USA) was mixed with the cell lysate following the manufacturer’s instructions. The fluorescence activity of the luciferase in each treatment group was measured using a multimode microplate reader (TriStar LB941, Berthold Technologies, Bad Wildbad, Germany). Finally, the fluorescence activity of each treatment group was expressed as a relative increase ratio compared to the control group.

Substance calcitonin [CT] has an EC50 [1] of 1 ± 0.45 nM, an EC50 [2] of 61.1 ± 8.55 nM and an EC50 [3] greater than 100 nM. For the same substance, the EC50 ([4]; CTR + RAMP2, CHO cells, pGL3-NFAT-RE-luciferase, 10^−12 M to 10^−6 M, 6 h, mean ± SEM, n = 3, read-out: EC50, calcium signaling pathway) was 2.5 ± 1.81 nM, the “elevation in luciferase activity, calcium signaling” value ([4]; CTR + RAMP2, pGL3-NFAT-RE-luciferase, CHO cells) was “modest elevation in luciferase activity” and the EC50 [5] was greater than 100 nM. For the same substance, the EC50 [6] was 5.81 ± 5.75 nM, the EC50 ([7]; CLR + RAMP2, CHO cells, pGL3-NFAT-RE-luciferase, 10^−12 M to 10^−6 M, 6 h, mean ± SEM, n = 3, read-out: EC50, calcium signaling pathway) was 1.52 ± 1.32 nM and the “elevation in luciferase activity, calcium signaling” value ([7]; CLR + RAMP2, pGL3-NFAT-RE-luciferase, CHO cells) was “modest elevation in luciferase activity”. The EC50 [8] was 32.3 ± 30.3 nM, the “CREB phosphorylation (p-CREB/CREB vs. control, 0 min)” value [9] was “significantly increased the CREB phosphorylation” and the “CREB phosphorylation (p-CREB/CREB vs. control, 0 min)” value [10] was “significantly increased the CREB phosphorylation”. For the same substance, the “CREB phosphorylation (p-CREB/CREB vs. control, 0 min)” value [11] was “significantly enhanced the CREB phosphorylation”, the “CREB phosphorylation (p-CREB/CREB vs. control, 0 min)” value [12] was “significantly enhanced the CREB phosphorylation” and the “effect of RAMP co-expression on sensitivity of CTR” value [13] was “does not markedly influence the sensitivity of chicken CTR for CT; also recorded: a slight decrease in sensitivity towards CT”. The “effect of RAMP co-expression on sensitivity of CLR” value ([14]; CHO cells, pGL3-CRE-luciferase) was “a slight reduction in chicken CLR’s sensitivity to CT in the presence of RAMP1”, the “rank order of receptor sensitivity” value ([14]; CLR without/with RAMPs) was “CLR ≈ CLR + RAMP2 ≈ CLR + RAMP3 > CLR + RAMP1” and the EC50 ([14]; CLR without/with RAMPs, read-out: EC50 range over CLR, CLR + RAMP2, CLR + RAMP3, CLR + RAMP1) was 0.75 to 3.3 nM.
